Measured values reported in the NIST ThermoML archive (doi:10.1016/j.tca.2006.04.016).
Numbers after ± are expanded uncertainties.

Details: 101.33 kPa, Liquid, Vibrating tube method

In the case of `CN(C)CCCN` [N,N-dimethyl-1,3-propanediamine], the mass density (278.15 K) is reported as 830.37 ± 0.44 kg/m3, the mass density (278.65 K) is reported as 829.93 ± 0.44 kg/m3 and the mass density (279.15 K) is reported as 829.49 ± 0.44 kg/m3. The mass density (279.65 K) was 829.05 ± 0.44 kg/m3, the mass density (280.15 K) was 828.61 ± 0.44 kg/m3 and the mass density (280.65 K) was 828.17 ± 0.44 kg/m3. For the same molecule, the mass density (281.15 K) was 827.73 ± 0.44 kg/m3, the mass density (281.65 K) was 827.29 ± 0.44 kg/m3 and the mass density (282.15 K) was 826.84 ± 0.44 kg/m3. It also gave a mass density (282.65 K) of 826.4 ± 0.44 kg/m3, a mass density (283.15 K) of 825.96 ± 0.44 kg/m3 and a mass density (283.65 K) of 825.52 ± 0.44 kg/m3. It also gave a mass density (284.15 K) of 825.08 ± 0.44 kg/m3, a mass density (284.65 K) of 824.64 ± 0.44 kg/m3 and a mass density (285.15 K) of 824.2 ± 0.44 kg/m3. For the same molecule, the mass density (285.65 K) was 823.76 ± 0.44 kg/m3, the mass density (286.15 K) was 823.32 ± 0.44 kg/m3 and the mass density (286.65 K) was 822.88 ± 0.44 kg/m3. It also gave a mass density (287.15 K) of 822.44 ± 0.44 kg/m3, a mass density (287.65 K) of 822 ± 0.44 kg/m3 and a mass density (288.15 K) of 821.56 ± 0.44 kg/m3. It also gave a mass density (288.65 K) of 821.12 ± 0.44 kg/m3, a mass density (289.15 K) of 820.67 ± 0.44 kg/m3 and a mass density (289.65 K) of 820.23 ± 0.44 kg/m3. The mass density (290.15 K) was 819.79 ± 0.44 kg/m3, the mass density (290.65 K) was 819.35 ± 0.44 kg/m3 and the mass density (291.15 K) was 818.91 ± 0.44 kg/m3. The mass density (291.65 K) was 818.47 ± 0.44 kg/m3, the mass density (292.15 K) was 818.03 ± 0.44 kg/m3 and the mass density (292.65 K) was 817.58 ± 0.44 kg/m3. It also gave a mass density (293.15 K) of 817.14 ± 0.44 kg/m3, a mass density (293.65 K) of 816.7 ± 0.44 kg/m3 and a mass density (294.15 K) of 816.26 ± 0.44 kg/m3. For the same molecule, the mass density (294.65 K) was 815.82 ± 0.44 kg/m3, the mass density (295.15 K) was 815.37 ± 0.44 kg/m3 and the mass density (295.65 K) was 814.93 ± 0.43 kg/m3. It also gave a mass density (296.15 K) of 814.49 ± 0.43 kg/m3, a mass density (296.65 K) of 814.05 ± 0.43 kg/m3 and a mass density (297.15 K) of 813.6 ± 0.43 kg/m3. The mass density (297.65 K) was 813.16 ± 0.43 kg/m3, the mass density (298.15 K) was 812.72 ± 0.43 kg/m3 and the mass density (298.65 K) was 812.27 ± 0.43 kg/m3. It also gave a mass density (299.15 K) of 811.83 ± 0.43 kg/m3, a mass density (299.65 K) of 811.39 ± 0.43 kg/m3 and a mass density (300.15 K) of 810.94 ± 0.43 kg/m3. For the same molecule, the mass density (300.65 K) was 810.5 ± 0.43 kg/m3, the mass density (301.15 K) was 810.06 ± 0.43 kg/m3 and the mass density (301.65 K) was 809.61 ± 0.43 kg/m3. It also gave a mass density (302.15 K) of 809.17 ± 0.43 kg/m3, a mass density (302.65 K) of 808.72 ± 0.43 kg/m3 and a mass density (303.15 K) of 808.28 ± 0.43 kg/m3. The mass density (303.65 K) was 807.84 ± 0.43 kg/m3, the mass density (304.15 K) was 807.39 ± 0.43 kg/m3 and the mass density (304.65 K) was 806.95 ± 0.43 kg/m3. The mass density (305.15 K) was 806.5 ± 0.43 kg/m3, the mass density (305.65 K) was 806.06 ± 0.43 kg/m3 and the mass density (306.15 K) was 805.61 ± 0.43 kg/m3. It also gave a mass density (306.65 K) of 805.17 ± 0.43 kg/m3, a mass density (307.15 K) of 804.72 ± 0.43 kg/m3 and a mass density (307.65 K) of 804.28 ± 0.43 kg/m3. For the same molecule, the mass density (308.15 K) was 803.83 ± 0.43 kg/m3, the mass density (308.65 K) was 803.39 ± 0.43 kg/m3 and the mass density (309.15 K) was 802.94 ± 0.43 kg/m3. For the same molecule, the mass density (309.65 K) was 802.5 ± 0.43 kg/m3, the mass density (310.15 K) was 802.05 ± 0.43 kg/m3 and the mass density (310.65 K) was 801.61 ± 0.43 kg/m3. The mass density (311.15 K) was 801.16 ± 0.43 kg/m3, the mass density (311.65 K) was 800.72 ± 0.43 kg/m3 and the mass density (312.15 K) was 800.27 ± 0.43 kg/m3. For the same molecule, the mass density (312.65 K) was 799.82 ± 0.43 kg/m3, the mass density (313.15 K) was 799.38 ± 0.43 kg/m3 and the mass density (313.65 K) was 798.93 ± 0.43 kg/m3. The mass density (314.15 K) was 798.48 ± 0.43 kg/m3, the mass density (314.65 K) was 798.04 ± 0.43 kg/m3 and the mass density (315.15 K) was 797.59 ± 0.43 kg/m3. For the same molecule, the mass density (315.65 K) was 797.14 ± 0.43 kg/m3, the mass density (316.15 K) was 796.69 ± 0.43 kg/m3 and the mass density (316.65 K) was 796.25 ± 0.43 kg/m3. It also gave a mass density (317.15 K) of 795.8 ± 0.43 kg/m3, a mass density (317.65 K) of 795.35 ± 0.43 kg/m3 and a mass density (318.15 K) of 794.9 ± 0.43 kg/m3. It also gave a mass density (318.65 K) of 794.45 ± 0.43 kg/m3, a mass density (319.15 K) of 794.01 ± 0.43 kg/m3 and a mass density (319.65 K) of 793.56 ± 0.43 kg/m3. The mass density (320.15 K) was 793.11 ± 0.43 kg/m3, the mass density (320.65 K) was 792.66 ± 0.43 kg/m3 and the mass density (321.15 K) was 792.21 ± 0.43 kg/m3. The mass density (321.65 K) was 791.76 ± 0.43 kg/m3, the mass density (322.15 K) was 791.31 ± 0.43 kg/m3 and the mass density (322.65 K) was 790.86 ± 0.43 kg/m3. The mass density (323.15 K) was 790.41 ± 0.43 kg/m3, the mass density (323.65 K) was 789.96 ± 0.43 kg/m3 and the mass density (324.15 K) was 789.52 ± 0.43 kg/m3. The mass density (324.65 K) was 789.06 ± 0.43 kg/m3, the mass density (325.15 K) was 788.62 ± 0.43 kg/m3 and the mass density (325.65 K) was 788.17 ± 0.43 kg/m3. For the same molecule, the mass density (326.15 K) was 787.72 ± 0.43 kg/m3, the mass density (326.65 K) was 787.26 ± 0.43 kg/m3 and the mass density (327.15 K) was 786.81 ± 0.43 kg/m3. The mass density (327.65 K) was 786.36 ± 0.43 kg/m3, the mass density (328.15 K) was 785.91 ± 0.43 kg/m3 and the mass density (328.65 K) was 785.46 ± 0.43 kg/m3. It also gave a mass density (329.15 K) of 785.01 ± 0.43 kg/m3, a mass density (329.65 K) of 784.56 ± 0.43 kg/m3 and a mass density (330.15 K) of 784.11 ± 0.43 kg/m3. The mass density (330.65 K) was 783.65 ± 0.43 kg/m3, the mass density (331.15 K) was 783.2 ± 0.43 kg/m3 and the mass density (331.65 K) was 782.75 ± 0.43 kg/m3. For the same molecule, the mass density (332.15 K) was 782.3 ± 0.43 kg/m3, the mass density (332.65 K) was 781.84 ± 0.43 kg/m3 and the mass density (333.15 K) was 781.39 ± 0.43 kg/m3. The mass density (333.65 K) was 780.94 ± 0.43 kg/m3, the mass density (334.15 K) was 780.49 ± 0.43 kg/m3 and the mass density (334.65 K) was 780.03 ± 0.43 kg/m3. It also gave a mass density (335.15 K) of 779.58 ± 0.43 kg/m3, a mass density (335.65 K) of 779.12 ± 0.43 kg/m3 and a mass density (336.15 K) of 778.67 ± 0.42 kg/m3. The mass density (336.65 K) was 778.22 ± 0.42 kg/m3, the mass density (337.15 K) was 777.76 ± 0.42 kg/m3 and the mass density (337.65 K) was 777.31 ± 0.42 kg/m3. The mass density (338.15 K) was 776.85 ± 0.42 kg/m3, the mass density (338.65 K) was 776.4 ± 0.42 kg/m3 and the mass density (339.15 K) was 775.94 ± 0.42 kg/m3. It also gave a mass density (339.65 K) of 775.49 ± 0.42 kg/m3, a mass density (340.15 K) of 775.03 ± 0.42 kg/m3 and a mass density (340.65 K) of 774.57 ± 0.42 kg/m3. The mass density (341.15 K) was 774.11 ± 0.42 kg/m3, the mass density (341.65 K) was 773.66 ± 0.42 kg/m3 and the mass density (342.15 K) was 773.2 ± 0.42 kg/m3. For the same molecule, the mass density (342.65 K) was 772.74 ± 0.42 kg/m3, the mass density (343.15 K) was 772.29 ± 0.42 kg/m3 and the mass density (343.65 K) was 771.83 ± 0.42 kg/m3. For the same molecule, the mass density (344.15 K) was 771.37 ± 0.42 kg/m3, the mass density (344.65 K) was 770.91 ± 0.42 kg/m3 and the mass density (345.15 K) was 770.45 ± 0.42 kg/m3. For the same molecule, the mass density (345.65 K) was 769.99 ± 0.42 kg/m3, the mass density (346.15 K) was 769.53 ± 0.42 kg/m3 and the mass density (346.65 K) was 769.08 ± 0.42 kg/m3. For the same molecule, the mass density (347.15 K) was 768.62 ± 0.42 kg/m3, the mass density (347.65 K) was 768.16 ± 0.42 kg/m3 and the mass density (348.15 K) was 767.7 ± 0.42 kg/m3. For the same molecule, the mass density (348.65 K) was 767.24 ± 0.42 kg/m3, the mass density (349.15 K) was 766.78 ± 0.42 kg/m3 and the mass density (349.65 K) was 766.32 ± 0.42 kg/m3. For the same molecule, the mass density (350.15 K) was 765.86 ± 0.42 kg/m3, the mass density (350.65 K) was 765.4 ± 0.42 kg/m3 and the mass density (351.15 K) was 764.94 ± 0.42 kg/m3. The mass density (351.65 K) was 764.48 ± 0.42 kg/m3, the mass density (352.15 K) was 764.02 ± 0.42 kg/m3 and the mass density (352.65 K) was 763.56 ± 0.42 kg/m3. It also gave a mass density (353.15 K) of 763.1 ± 0.42 kg/m3, a mass density (353.65 K) of 762.64 ± 0.42 kg/m3 and a mass density (354.15 K) of 762.17 ± 0.42 kg/m3. For the same molecule, the mass density (354.65 K) was 761.71 ± 0.42 kg/m3, the mass density (355.15 K) was 761.25 ± 0.42 kg/m3 and the mass density (355.65 K) was 760.79 ± 0.42 kg/m3. The mass density (356.15 K) was 760.33 ± 0.42 kg/m3, the mass density (356.65 K) was 759.86 ± 0.42 kg/m3 and the mass density (357.15 K) was 759.4 ± 0.42 kg/m3. For the same molecule, the mass density (357.65 K) was 758.94 ± 0.42 kg/m3, the mass density (358.15 K) was 758.48 ± 0.42 kg/m3 and the mass density (358.65 K) was 758.01 ± 0.42 kg/m3. The mass density (359.15 K) was 757.55 ± 0.42 kg/m3, the mass density (359.65 K) was 757.08 ± 0.42 kg/m3 and the mass density (360.15 K) was 756.62 ± 0.42 kg/m3. The mass density (360.65 K) was 756.15 ± 0.42 kg/m3, the mass density (361.15 K) was 755.69 ± 0.42 kg/m3 and the mass density (361.65 K) was 755.22 ± 0.42 kg/m3. It also gave a mass density (362.15 K) of 754.75 ± 0.42 kg/m3, a mass density (362.65 K) of 754.28 ± 0.42 kg/m3 and a mass density (363.15 K) of 753.82 ± 0.42 kg/m3.
